Experimental data: ChEMBL document CHEMBL4765326, “Anchoring BODIPY photosensitizers enable pan-microbial photoinactivation” (Eur J Med Chem, 2020)
Active and inactive are the calls of the source. The rule behind the calls is not given here.

What was measured:
[1] = system: Staphylococcus aureus; test: Antibacterial activity against methicillin resistant Staphylococcus aureus up to 80 uM by broth microdilution method; format: functional, organism-based; conditions: dose microM <=80
[2] = Octanol-water partition coefficient, logP of compound incubated for 24 hrs under shaking condition; format: physicochemical
[3] = system: Escherichia coli; test: Antibacterial activity against Escherichia coli up to 80 uM by broth microdilution method; format: functional, organism-based; conditions: dose microM <=80
[4] = system: Staphylococcus aureus; test: Antibacterial activity against Staphylococcus aureus up to 80 uM by broth microdilution method; format: functional, organism-based; conditions: dose microM <=80
[5] = Induction of singlet oxygen generation in DPBF solution assessed as singlet oxygen quantum yield irradiated with 80 mW/cm2 light by DPBF-based assay; format: functional
[6] = system: Candida albicans; test: Antifungal activity against Candida albicans up to 80 uM by broth microdilution method; format: functional, organism-based; conditions: dose microM <=80
[7] = system: Candida albicans; test: Photodynamic antifungal activity against Candida albicans assessed as fungal eradication preincubated for 20 mins in dark condition followed by 18 J/cm2 LED light irradiation and measured after 18 hrs by broth microdilution method; format: functional; conditions: light or radiation study, 18.33 h, time 1100 min
[8] = system: Staphylococcus aureus; test: Photodynamic antibacterial activity against methicillin resistant Staphylococcus aureus assessed as bacterial eradication preincubated for 20 mins in dark condition followed by 18 J/cm2 LED light irradiation and measured after 18 hrs by broth microdilution method; format: functional; conditions: light or radiation study, 18.33 h, time 1100 min
[9] = system: Escherichia coli; test: Photodynamic antibacterial activity against Escherichia coli assessed as bacterial eradication preincubated for 20 mins in dark condition followed by 18 J/cm2 LED light irradiation and measured after 18 hrs by broth microdilution method; format: functional; conditions: light or radiation study, 18.33 h, time 1100 min
[10] = system: Staphylococcus aureus; test: Photodynamic antibacterial activity against Staphylococcus aureus assessed as bacterial eradication preincubated for 20 mins in dark condition followed by 18 J/cm2 LED light irradiation and measured after 18 hrs by broth microdilution method; format: functional; conditions: light or radiation study, 18.33 h, time 1100 min
[11] = system: Candida albicans; test: Binding affinity to Candida albicans cell wall assessed as bound fraction at 25 uM measured after 3 to 10 mins; conditions: time 3-10 min
[12] = system: Escherichia coli; test: Binding affinity to Escherichia coli cell wall at 50 uM preincubated with 12.5 to 50 mM Ca2+ for 30 mins followed by incubation with compound for 30 mins
[13] = system: Cell membrane; test: Binding affinity to Escherichia coli cell membrane assessed as reduction in zeta potential by zetasizer-based analysis; format: subcellular
[14] = system: Escherichia coli; test: Binding affinity to Escherichia coli cell wall assessed as bound fraction at 25 uM measured after 3 to 10 mins; conditions: time 3-10 min
[15] = system: Staphylococcus aureus; test: Binding affinity to Staphylococcus aureus cell wall assessed as bound fraction at 25 uM measured after 3 to 10 mins; conditions: time 3-10 min
[16] = system: Candida albicans; test: Binding affinity to Candida albicans cell wall at 50 uM preincubated with 12.5 to 50 mM Ca2+ for 30 mins followed by incubation with compound for 30 mins
[17] = system: Cell membrane; test: Binding affinity to Staphylococcus aureus cell membrane assessed as reduction in zeta potential by zetasizer-based analysis; format: subcellular
[18] = system: Staphylococcus aureus; test: Binding affinity to Staphylococcus aureus cell wall at 50 uM preincubated with 12.5 to 50 mM Ca2+ for 30 mins followed by incubation with compound for 30 mins

SMILES	Activity [1]	logP at 24 h [2]	Activity [3]	Activity [4]	Activity [5]	Activity [6]	MIC [7]	MIC [8]	MIC [9]	MIC [10]	Activity [11]	Activity [12]	Activity [13]	Activity [14]	Activity [15]	Activity [16]	Activity [17]	Activity [18]
CC1=C(I)C(C)=[N+]2C1=Cc1c(C)c(I)c(C)n1[B-]2(OCCCCc1cc[n+](C)cc1)OCCCCc1cc[n+](C)cc1	inactive	-0.74	inactive	inactive	0.77	inactive	5 µM	1.25 µM	0.625 µM	1.25 µM	–	–	–	–	–	–	–	–
CC1=C(I)C(C)=[N+]2C1=Cc1c(C)c(I)c(C)n1[B-]2(OCc1cc[n+](C)cc1)OCc1cc[n+](C)cc1	inactive	-1.21	inactive	inactive	0.59	inactive	40 µM	40 µM	25 µM	50 µM	–	–	–	–	–	–	–	–
CC1=C(I)C(C)=[N+]2C1=Cc1c(C)c(I)c(C)n1[B-]2(OCCCc1cc[n+](C)cc1)OCCCc1cc[n+](C)cc1	inactive	-0.91	inactive	inactive	0.74	inactive	5 µM	1.25 µM	1.25 µM	1.25 µM	–	–	–	–	–	–	–	–
CC1=C(I)C(C)=[N+]2C1=Cc1c(C)c(I)c(C)n1[B-]2(C#Cc1ccc[n+](C)c1)C#Cc1ccc[n+](C)c1	inactive	-0.27	inactive	inactive	0.65	inactive	0.625 µM	0.625 µM	1.25 µM	1.25 µM	–	–	–	–	–	–	–	–
CC1=C(I)C(C)=[N+]2C1=Cc1c(C)c(I)c(C)n1[B-]2(Oc1cc[n+](C)cc1)Oc1cc[n+](C)cc1	inactive	-0.93	inactive	inactive	0.61	inactive	40 µM	40 µM	25 µM	25 µM	–	–	–	–	–	–	–	–
CC1=C(I)C(C)=[N+]2C1=Cc1c(C)c(I)c(C)n1[B-]2(C#Cc1cc[n+](C)cc1)C#Cc1cc[n+](C)cc1	inactive	-0.63	inactive	inactive	0.54	inactive	0.625 µM	0.625 µM	1.25 µM	1.25 µM	–	–	–	–	–	–	–	–
CC1=C(I)C(C)=[N+]2C1=Cc1c(C)c(I)c(C)n1[B-]2(OCCC[N+](C)(C)C)OCCC[N+](C)(C)C	inactive	-1.01	inactive	inactive	0.68	inactive	40 µM	20 µM	40 µM	30 µM	53.6%	inactive	Active	38.9%	51.8%	inactive	Active	inactive
